Test results as given in paper PMC4080980, “The pharmacokinetics of anthocyanins and their metabolites in humans” (British Journal of Pharmacology, 2014).
Marks after values point to notes of the source that are not given here.

What was measured:
[1] = Serum pharmacokinetics after 500 mg oral bolus of 13C5-C3G (HPLC-ESI-MS/MS, non-compartmental analysis); type: in vivo, humans; settings: for Cmax: healthy men, mean ± SEM of participants in whom detected; for AUC(0-t) / AUC0-48: trapezoidal rule; for AUC(0-t): read-out: AUC0-48
Method: (§1) A detailed description of the clinical design was previously published ([Czank et al., 2013]). Briefly, a single 500 mg oral bolus dose of isotopically labelled C3G (^13C5-C3G) was fed to eight healthy male participants (body mass index, 18.5–30.5 kg·m^–2; aged 18–45 years) after an overnight fast (>8 h). Participants provided blood (baseline, 0.5, 1, 2, 4, 6, 24, 48 h), urine (individual voids between 0 and 6 h, total voids between 6–24 and 24–48 h), breath (baseline, 0.5, 1, 2, 4, 6, 24, 48 h) and faecal samples (all voids between 0–6, 6–24 and 24–48 h). The study was conducted at the Clinical Research and Trials Unit at the University of East Anglia according to the principles expressed in the Declaration of Helsinki and was approved by the Cambridgeshire 3 Research Ethics Committee (REC ref: 10/H0306/42) and registered at clinicaltrials.gov as NCT01106729.
(§2) Serum, urine and faecal samples were extracted by SPE and analysed by HPLC-ESI-MS/MS as recently described ([Czank et al., 2013]). The extraction efficiency was established as 87 ± 11% (coefficient of variation, CV; 6.8 ± 0.7%) for serum, 88 ± 18% (CV, 7.9 ± 0.8%) for urine and 81 ± 21% (CV, 14.1 ± 1.2%) for faeces (n = 3 replicates for each analyte). Sample extracts (5 μL) were injected onto a Kinetex PFP column (Phenomonex) and separated using an Agilent 1200 series HPLC with a QTrap 4000 linear ion trap mass spectrometer (ABSciex, Warrington, UK). […] Metabolite identification was performed by multiple reaction monitoring (MRM) optimized for the detection of pure standards with m/z of the parent and daughter fragments adjusted to +2,+3,+5 amu to allow identification of the ^13C-labelled metabolites derived from the B-ring, A-ring or the parent structure respectively. Metabolites were confirmed on the basis of retention time (using authentic and synthesized standards where possible) and three or more ion transitions. The HPLC-ESI-MS/MS method was validated for linearity and precision across all metabolites. Six point standard curves ranging from 1.25 to 20 μM were constructed from analytical standards and injected six times. The precision was established as 1.4–11.0% and linearity of the standard curves was established as r^2 = 0.991–1.000 (CV, 0.2%) across the identified metabolites.
(§3) Pharmacokinetic modelling of metabolites in the serum was performed with the PKSolver ‘add-on’ for Excel 2010 (Microsoft, […], USA) ([Zhang et al., 2010]) using non-compartmental analysis with the AUC calculated using the trapezoidal rule. Pharmacokinetic parameters were established for each individual analyte and presented as mean ± SEM. Urine samples collected during the first 6 h post-bolus were grouped together to the nearest hour time point (i.e. samples were not pooled but individual concentrations were averaged post-quantification) for graphical representation and to calculate total cumulative recovery. The concentration of metabolites was converted to amount recovered from urine by accounting for the molecular weight of the individual ^13C-labelled metabolites and the volume of the individual participants void and averaged across participants. Recovery of metabolites in the faeces was established from the molecular weight of the ^13C-labelled metabolite and the weight of the individual participants void adjusting for faecal water content as previously described ([Czank et al., 2013]). Urine and faecal recovery amounts are presented as mean ± SEM (n = 8), unless otherwise stated.

[2] = set-up: method as in Czank et al., 2013; settings: ref Czank et al., 2013, cited from earlier work
[3] = Faecal recovery after 500 mg oral bolus of 13C5-C3G; type: in vivo, humans; settings: faeces, 500 mg oral 13C5-C3G; for Recovery 6–24 h / Recovery 24–48 h: mean ± SEM
Method: The study was conducted at the Clinical Research and Trials Unit at the University of East Anglia according to the principles expressed in the Declaration of Helsinki and was approved by the Cambridgeshire 3 Research Ethics Committee (REC ref: 10/H0306/42) and registered at clinicaltrials.gov as NCT01106729.
Sample extracts (5 μL) were injected onto a Kinetex PFP column (Phenomonex) and separated using an Agilent 1200 series HPLC with a QTrap 4000 linear ion trap mass spectrometer (ABSciex, Warrington, UK). […] Metabolite identification was performed by multiple reaction monitoring (MRM) optimized for the detection of pure standards with m/z of the parent and daughter fragments adjusted to +2,+3,+5 amu to allow identification of the ^13C-labelled metabolites derived from the B-ring, A-ring or the parent structure respectively. […] The HPLC-ESI-MS/MS method was validated for linearity and precision across all metabolites.
Pharmacokinetic parameters were established for each individual analyte and presented as mean ± SEM. Urine samples collected during the first 6 h post-bolus were grouped together to the nearest hour time point (i.e. samples were not pooled but individual concentrations were averaged post-quantification) for graphical representation and to calculate total cumulative recovery. The concentration of metabolites was converted to amount recovered from urine by accounting for the molecular weight of the individual ^13C-labelled metabolites and the volume of the individual participants void and averaged across participants. […] Urine and faecal recovery amounts are presented as mean ± SEM (n = 8), unless otherwise stated.

[4] = Urinary elimination/recovery after 500 mg oral bolus of 13C5-C3G; type: in vivo, humans; settings: urine, single 500 mg oral 13C5-C3G; for Tmax: male, human, po, 500 mg, urine collection interval, read-out: Time at maximum concentration; for Total recovery: 0-48 h; for Total recovery / Maximum concentration: mean ± SEM
Method: as §1, §2, §3

plasma VCAM-1 = test system: plasma VCAM-1; set-up: method as in Wang et al., 2010; settings: mice fed PCA; ref Wang et al., 2010; cited from earlier work
[5] = test system: vascular cell adhesion molecule-1 (VCAM-1); set-up: method as in Wang et al., 2010; settings: TNF-α-induced mouse aortic endothelial cells; ref Wang et al., 2010; cited from earlier work
[6] = test system: LPS-induced RAW 264.7 cells; set-up: method as in Min et al., 2010; settings: ref Min et al., 2010; cited from earlier work
plasma IL-6 = test system: plasma IL-6; set-up: method as in Kim et al., 2010; settings: vanillic acid fed mice; ref Kim et al., 2010; cited from earlier work
[7] = male, human, serum, po, 500 mg, serum elimination half-life, single 500 mg oral 13C5-C3G, mean ± SEM
[8] = male, human, serum, po, 500 mg, serum, single 500 mg oral 13C5-C3G, mean ± SEM, read-out: tmax
[9] = male, human, serum, po, 500 mg, single 500 mg oral 13C5-C3G
[10] = male, human, serum, single 500 mg oral 13C5-C3G, mean ± SEM
[11] = serum, single 500 mg oral 13C5-C3G
[12] = serum, single 500 mg oral 13C5-C3G, mean ± SEM

SMILES | half-life [1, 7] [h] | Tmax [1, 8] [h] | Cmax [1, 9] [nM] | AUC(0-t) [1, 10] [µM·h] | Recovery 6–24 h [3] | Recovery 24–48 h [3] | Tmax [4] [h] | Total recovery [4] [µg] | Maximum concentration [4] [nM] | Cmax [1, 11] [nM] | Tmax [1, 12] [h] | AUC0-48 [1, 12] [µM·h] | other results
OCC1OC(Oc2cc3c(O)cc(O)cc3[o+]c2-c2ccc(O)c(O)c2)C(O)C(O)C1O (stereo not drawn) [Cyanidin-3-glucoside, 6,8,10,3′,5′-^13C5-cyanidin-3-glucoside] | 0.4 | 1.8 ± 0.2 | 141 ± 70 | 0.279 ± 0.17 | 70.0 ^b μg | 19.6 ^b μg | 1 to 2 | 120.0 ± 54.1 | 334 ± 145 |  |  |  | share of the total metabolites found in the circulation ([1]; serum, 500 mg oral 13C5-C3G): 2%; relative bioavailability ([2]; based on recovery of the 13C-label in urine and breath): 12.4 ± 1.4%; recovered 13C-label in faeces [2]: 32 ± 6%; recovery of the initial dose of 13C within the urine sample [2]: 12%
O=C(O)c1ccc(OC2OC(C(=O)O)C(O)C(O)C2O)c(O)c1 (stereo not drawn) [PCA-4-glucuronide] |  |  |  |  | 16.1 ± 17.5 µg | 20.4 ± 16.2 ^i μg |  | 100.3 ± 30.2 | 233 ± 65 | 68 ± 61 | 3.8 ± 0.8 | 0.618 ± 0.489 | t1/2 ([1]; serum elimination half-life, single 500 mg oral 13C5-C3G, mean ± SEM): 19.4 ± 3.1 h
O=Cc1c(O)cc(O)cc1O [Phloroglucinaldehyde] |  | 2.8 ± 1.1 | 582 ± 536 | 7.88 ± 7.77 | 2.1 ± 1.3 ^e μg | 111.3 ± 78.7 ^f μg | 6 to 24 | 66.7 ± 21.3 | 170 ± 42 |  |  |  | 
O=C(O)c1ccc(O)c(O)c1 [Protocatechuic acid (PCA), Protocatechuic acid] | 9.9 ± 3.4 | 3.3 ± 0.7 | 147 | 1.38 ± 0.76 | 360.9 ± 278.1 ^c μg | 221.8 ± 134.9 ^d μg | 1 to 2 | 71.6 ± 20.9 | 337 ± 117 | 146 ± 74 |  |  | Recovery 6–24 h ([3]; listed as PCA): 360.9 µg; plasma VCAM-1 levels (plasma VCAM-1): reduced; VCAM-1 protein and mRNA [5]: reduce; production of TNF-α, IL-1β, NO, PGE2 and gene expression of NOS and COX-2 [6]: suppress
COc1cc(C(=O)O)ccc1OC1OC(C(=O)O)C(O)C(O)C1O (stereo not drawn) [VA-4-glucuronide] |  |  |  |  | 3.3 ^b μg | 9.5 ± 7.9 ^g μg |  | 618.4 ± 109.7 | 762 ± 124 | 24 ± 4 | 4.8 ± 0.4 | 0.074 ± 0.011 | Recovery 0–6 h ([3]; 0–6 h (only 2 participants provided voids)): 3.6 ^b μg
COc1cc(C(=O)O)ccc1O [Vanillic acid (VA), Vanillic acid] | 6.4 | 12.5 ± 11.5 | 1840 ± 838 |  | 54.7 ± 1.6 ^h μg | 49.3 ± 21.4 ^g μg | 1 to 2 | 960.4 ± 350.0 | 3412 ± 312 |  |  |  | plasma IL-6 (plasma IL-6): reductions
